Measured values reported in patent US20220243249A1, “ANTAGONISTS OF CAMKII-DELTA 9 AND USES THEREOF” (PEKING UNIVERSITY, priority 2019, published 2022).
Peptide text beside a SMILES is read from it. * marks the point of attachment. Cbz = O=C(OCc1ccccc1)*

Assays:
NRVMs = experiment: DNA damage by γH2AX and comet assay in NRVMs; assay type: cell-based, rat; conditions: β-lac 5 μM, MG132 10 μM
Procedure: Cultured neonatal rat ventricular cardiomyocytes (NRVMs) were treated as indicated, and then washed with cold PBS, following the protocol of the comet assay kit (Trevigen, Cat #: 4250-050-K) under alkaline conditions. Mean tail moments were quantified for 300-500 cells per sample in each experiment, with Comet Assay Software Project (v1.2.3b1).
(§1) Cardiomyocyte immunofluorescence was measured as previously described (Erickson, J. R. et al., Physiological reviews 91, 889-915, doi:10.1152/physrev.00018.2010 (2011)).

UBE2T [1] = experiment: UBE2T protein level by western blot in NRVMs; assay type: cell-based, rat; conditions: for CaMKII-δ9-induced reduction of the UBE2T protein level: β-lac 5 μM, MG132 10 μM
Procedure: NRVMs were isolated from 1-day-old Sprague-Dawley rats, and adenovirus-mediated gene transfer was implemented using methods described previously (Zhang, T. et al., Nature medicine 22, 175-182, doi: 10.1038/nm.4017 (2016)). NRVMs were exposed to H2O2 (200 μM) or Dox (1 μM) for 24 h.
(§2) Western blot and co-immunoprecipitation were performed as previously described (Zhang, T. et al., Nature medicine 22, 175-182, doi:10.1038/nm.4017 (2016)).

UBE2T [2] = experiment: Immunostaining of myc-tagged UBE2T location in NRVMs; assay type: cell-based, rat; design: dose or concentration left out as unconfirmed
Procedure: as §1

CaMKII-δ9 = CaMKII-δ9 protein level, phosphorylation and oxidation in NRVMs under stress; assay type: cell-based, rat; conditions: for expression of CaMKII-δ9 (protein): Dox 1 μM or H2O2 200 μM, 24 h
Procedure: NRVMs were isolated from 1-day-old Sprague-Dawley rats, and adenovirus-mediated gene transfer was implemented using methods described previously (Zhang, T. et al., Nature medicine 22, 175-182, doi: 10.1038/nm.4017 (2016)). […]
as §2

exon 16 of CaMKII-δ = experiment: Transverse aortic constriction (TAC) in CaMKII-δ9 shRNA transgenic mice; assay type: in vivo, mouse
Procedure: Transverse aortic constriction (TAC) was performed in 6-week-old male mice. Mice were anesthetized under 3% isoflurane via intubation, the chest was opened, the aortic arch was visualized, and a 7-0 silk suture was passed under the arch between the innominate and left common carotid arteries. The suture was secured around both the aorta and a 28-gauge needle, the needle was removed, the chest was closed, and the mouse was extubated. Sham-operated mice underwent an identical procedure except for the aortic ligation. Mice were given buprenorphine via intraperitoneal injection during recovery.
The sequence of miR30-based CaMKII-δ9 shRNA was 5′-[…] […]-3′ (SEQ ID NO: 37). The shRNA with an N-terminal EGFP tag and C-terminal BGH poly A sequences was cloned into the pLKO.1 plasmid containing the U6 promoter. After linearization, gel-purification was performed. This construct was microinjected into the pronuclei of fertilized C57BL/6J mouse eggs. PCR was used for genotyping. The primer sequences were 5′-[…]-3′ (forward) (SEQ ID NO: 38) and 5′-[…]-3′ (reverse) (SEQ ID NO: 39).
Echocardiographic analysis using a Vevo2100 digital imaging system (Visual Sonics, Toronto, ON, Canada) was performed under 1% isoflurane at 6 and 10 weeks of age, with mid-ventricular M and B mode measurements acquired in the parasternal short-axis view at the level of the papillary muscles. Once the mice were acclimated to the procedures, images were stored in digital format on a magnetic optical disk for review and analysis. Measurements of the LV internal end-diastolic diameter (LVIDd) were made at the time of apparent maximal LV diastolic dimension, while measurements of the LV internal end-systolic diameter (LVIDs) were taken at the time of the most anterior systolic excursion of the posterior wall. LV ejection fraction (EF) was calculated by the cubic method: LVEF (%)={(LVIDd)^3−(LVIDs)^3}/(LVIDd)^3×100, and LV fractional shortening (FS) was calculated by FS (%)=(LVIDd−LVIDs)/LVIDd×100. The data were averaged from 5 cardiac cycles.
Histological analysis of heart tissue was as previously described (Zhang, T. et al. Nature medicine 22, 175-182, doi: 10.1038/nm.4017 (2016)). The CardioTACS™ in situ apoptosis detection kit (Roche Applied Science, Cat #: 11684795910) was used for TUNEL staining as previously described (Zhang, T. et al. Nature medicine 22, 175-182, doi:10.1038/nm.4017 (2016)).

`CC(C)[C@H](O)[C@@]12NC(=O)[C@H](C)[C@@H]1OC2=O` [β-lac, clasto-lactacystin β-lactone] was tested. Which “CaMKII-δ9-mediated γH2AX upregulation” value (NRVMs) did it give?
The value was “block”.

What about the “CaMKII-δ9-induced reduction of the UBE2T protein level” value (UBE2T [1]) of the same molecule?
Its value is “fully abolished”.

Which results are given for `CC(C)C[C@@H](C=O)NC(=O)[C@H](CC(C)C)NC(=O)[C@H](CC(C)C)NC(=O)OCc1ccccc1` [MG132] (Cbz-Leu-Leu-Leu-aldehyde)?
CaMKII-δ9-mediated γH2AX upregulation (NRVMs): block; CaMKII-δ9-induced reduction of the UBE2T protein level (UBE2T [1]): fully abolished; subcellular location of UBE2T (UBE2T [2]): present in both the nuclear and cytosolic compartments

`OO` [H2O2] was tested. Which “expression of CaMKII-δ9 (protein)” value (CaMKII-δ9) did it give?
Its value is “significantly elevated”.

What about the UBE2T protein level (UBE2T [1]; NRVMs, western blot) of the same molecule?
The UBE2T protein level was “decreased”.

With `COc1cccc2c1C(=O)c1c(O)c3c(c(O)c1C2=O)C[C@@](O)(C(=O)CO)C[C@@H]3O[C@H]1C[C@H](N)[C@H](O)[C@H](C)O1` [Doxorubicin] as the molecule, how does the “expression of CaMKII-δ9 (protein)” value (CaMKII-δ9) read?
Its value is “significantly elevated”.

What about the “oxidation level of CaMKII-δ9” value (CaMKII-δ9; Dox 1 μM, 30 and 60 min) of the same molecule?
Its value is “increased”.

And the “phosphorylation level of CaMKII-δ9” value (CaMKII-δ9; Dox 1 μM, 30 and 60 min)?
The value was “increased”.

B1: CaMKII-δ9 shRNA: miR30-based CaMKII-δ9 shRNA (SEQ ID NO: 37) targeting exon 16, expressed transgenically in mice (nucleic acid)
DNA: GAAGGTATATTGCTGTTGACAGTGAGCGCAATCCACAACCCTGACGGAAATAGTGAAGCCACAGATGTATTTCCGTCAGGGTTGTGGATTATGCCTACTGCCTCGG
What does the source list for B1?
TAC-induced cardiac DNA damage (γH2AX) (exon 16 of CaMKII-δ; 4 weeks after TAC surgery): reduced; TAC-induced cardiac hypertrophy (exon 16 of CaMKII-δ; 4 weeks after TAC surgery): markedly attenuated; TAC-induced cardiomyocyte death (TUNEL) (exon 16 of CaMKII-δ; 4 weeks after TAC surgery): reduced; TAC-induced contractile dysfunction (EF, FS) (exon 16 of CaMKII-δ; 4 weeks after TAC surgery): markedly attenuated; cardiac UBE2T protein abundance (exon 16 of CaMKII-δ; 4 weeks after TAC surgery): augmented; TAC-induced premature death (exon 16 of CaMKII-δ; Kaplan-Meier survival): markedly attenuated
